Each block holds one compound with its values, some of them ahead of it.
Assays:
[1] = system: NCI-N87 human gastric carcinoma (HER2 overexpressing) xenografts; assay: refractory T-mab/P-mab model Step I; format: in vivo, male nude mice (BALB/cAJcl-mu/mu)
Description: Male nude mice (BALB/cAJcl-mu/mu) were implanted with NCI-N87 human gastric carcinoma (HER2 overexpressing); 1.0×10^7 cells in 100 μL of PBS were implanted subcutaneously per mouse.

[2] = system: MDA-MB-175VII cells (DOC4-NRG1 fusion); assay: growth inhibitory effect in NRG1 fusion-driven cancer cell line (GI50); format: cell-based; details: Homo sapiens, mean of 3-4 independent experiments
Description: GI50 values were also determined for currently approved EGFR/HER2 tyrosine kinase inhibitors: afatinib, osimertinib, tucatinib, lapatinib, and neratinib, and one investigational drug (poziotinib). Mean values were determined from 3-4 independent experiments.

SK-BR-3 cells = assay: feedback activation of HER3, downstream targets and apoptosis markers in SK-BR-3 cells; format: cell-based, human; details: for phosphorylation of HER2, HER3, and their downstream targets: 3 hours; for phosphorylation of HER2, HER3, and their downstream targets / BIM and cleaved PARP: 30 to 300 nmol/L; for phosphorylation of HER2, HER3, and their downstream targets (AKT and ERK) / BIM and cleaved PARP: 48 hours
Excerpt: The effect of Compound (1) on feedback activation of HER3, its downstream targets (ERK and AKT), and apoptosis markers (BIM and cleaved PARP) in SK-BR-3 cells was investigated. In addition, the same information for lapatinib and tucatinib (a reversible inhibitor of HER2) was obtained.

[3] = system: NCI-N87 xenografts relapsed from T-DM1; details: 10 mg/kg/day iv Day 1
Description: Male nude mice (BALB/cAJ1-mu/mu) were implanted with NCI-N87 human gastric carcinoma (HER2 overexpressing); 1.0×10^7 cells in 100 μL of PBS were implanted subcutaneously per mouse.
PO; or treated with an oral suspension of Compound (1) once per day at a dosage of 25 mg/kg/day, PO. The tumor volumes (TV, mm^3) and body weights of the mice were recorded.

[4] = system: NCI-N87 tumor fragment #6, clone 3; assay: refractory T-DM1 monoclonal cell line model, comparison to DS-8201a; format: in vivo, male mice; details: single iv dose of 10 mg/kg T-DM1
Description: The obtained cell line was implanted into BALB/cAJcl-mu/nu male mice (8.0×10^6 cells in 100 μL of PBS/mouse, subcutaneous) for the efficacy test.
The tumor volumes (TV, mm) and body weights of the mice were recorded.

[5] = system: NCI-N87 human gastric carcinoma xenografts; assay: antitumor effect in nude mice bearing NCI-N87 xenografts; format: in vivo; details: Day 15
Description: The antitumor effect of Compound (1) was evaluated in nude mice bearing HER2-overexpressing NCI-N87 human gastric carcinoma xenografts. Compound (1) dosing suspensions using 0.5% w/v hydroxypropyl methylcellulose (HPMC) as vehicle were prepared at 4 dose levels (3.1, 6.3, 12.5, and 25.0 mg/kg/day) and administered orally once daily for 14 days. In addition, the antitumor effect of poziotinib, which is a pan-ErbB inhibitor and currently under clinical development for the treatment of cancer with epidermal growth factor receptor containing HER2 exon 20 insertion mutations, was also evaluated using this model. Poziotinib was administered orally once daily for 14 days at 2 dose levels (0.5 or 1.0 mg/kg/day). The control group received 0.5% w/v HPMC once daily for 14 days.

[6] = system: MCF10A_HER2/insYVMA_v human mammary epithelial xenografts; assay: antitumor effect in nude mice bearing MCF10A_HER2/insYVMA_v xenografts; format: in vivo; details: Day 15
Description: The antitumor effect of Compound (1) was evaluated in a nude mouse xenograft model of MCF10A_HER2/insYVMA_v. MCF10A_HER2/insYVMA_v was established as stably growing cells in vivo derived from MCF10A HER2/insYVMA (a human mammary epithelial cell line engineered to express the HER2 exon 20 insertion mutation A775_G776insYVMA) xenografts subcutaneously transplanted into nude mice. Compound (1) suspensions (using 0.5% w/v HPMC as vehicle) were administered orally once daily to mice at doses of 7.8, 12.5, or 20.0 mg/kg/day for 14 days. The control group received 0.5% weight per volume (w/v) hydroxypropyl methylcellulose (HPMC) solution orally once daily for 14 days.
In addition, the antitumor effect of poziotinib (an irreversible inhibitor of EGFR, HER2, and HER4) was also evaluated using this model.

[7] = system: intracranial NCI-N87-luc human gastric carcinoma xenografts; assay: intracranial antitumor effect, NCI-N87-luc xenografts; format: in vivo, nude mice; details: Day 22
Description: The intracranial antitumor effect of Compound (1) was evaluated using Compound (1) in nude mice intracranially implanted with NCI-N87-luc cells, which were engineered to stably express the luciferase gene using the HER2-overexpressing NCI-N87 human gastric carcinoma cell line. Compound (1) dosing suspensions using 0.5% w/v HPMC as vehicle were prepared with Compound (1) at 3 dose levels (16.0, 20.0, or 25.0 mg/kg/day) and administered PO QD for 21 days. The control group received 0.5% weight per volume (w/v) hydroxypropyl methylcellulose (HPMC) solution orally once daily for 21 days. The antitumor effect of poziotinib was also evaluated using this model. Poziotinib was administered PO QD for 21 days at 2 dose levels (0.5 or 1.0 mg/kg/day).

[8] = Step I Day 22, 20 mg/kg/day (each) ip Days 1, 8, 15

Compound: pertuzumab [P-mab]
RTV (mean ± SE) ([1]; Day 22 to Day 0 (Step I), 20 mg/kg/day (each) ip Days 1, 8, 15): 4.0
T/C ([1]; Step I Day 22, vs non-treatment control, 20 mg/kg/day (each) ip Days 1, 8, 15): 76.5%
Number of Death [1, 8]: 0
TV (mean ± SE) [1, 8]: 1233.1 mm^3
BWC (mean ± SE) ([1]; mouse, in vivo, ip, 20 mg/kg/day): 10.20%

Compound: trastuzumab emtansine [T-DM1]
RTV (mean ± SE) ([3]; Day 22 to Day 1 (Step II)): 1.73
TV (mean ± SE) ([3]; Step II Day 22): 595.1 mm^3
T/C ([3]; Step II Day 22, reference group): 100.0%
antitumor effect (tumor volume) [4]: failing to inhibit tumor growth

Compound: CCOc1cc2ncc(C#N)c(Nc3ccc(OCc4ccccn4)c(Cl)c3)c2cc1NC(=O)/C=C/CN(C)C [neratinib]
GI50 [2]: 3 ± 0.6 nM

Compound: C=CC(=O)N1CCC(Oc2cc3c(Nc4ccc(Cl)c(Cl)c4F)ncnc3cc2OC)CC1 [poziotinib, reference compound]
T/C ratio of the mean tumor volumes ([5]; 0.5 mg/kg/day orally once daily 14 days): 44.2%
T/C ratio of the mean tumor volumes ([5]; 1.0 mg/kg/day orally once daily 14 days): 8.8%
GI50 [2]: 0.3 ± 0.2 nM
T/C ratio of the mean tumor volume ([6]; 0.5 mg/kg/day): 29.0%
T/C ratio of the mean tumor volume ([6]; 1.0 mg/kg/day): 8.3%
T/C ratio of the mean total flux ([7]; 0.5 mg/kg/day PO QD 21 days): 39.0%
mean body weight change (BWC) ([7]; 0.5 mg/kg/day): 2.5%
T/C ratio of the mean total flux ([7]; 1.0 mg/kg/day PO QD 21 days): 21.1%
mean body weight change (BWC) ([7]; 1.0 mg/kg/day): −0.3%

Second part, led by results:

GI50 [2]: 27.6 ± 5.5 nM
Compound: Cc1cc(Nc2ncnc3ccc(NC4=NC(C)(C)CO4)cc23)ccc1Oc1ccn2ncnc2c1 [tucatinib]
phosphorylation of HER2, HER3, and their downstream targets (SK-BR-3 cells): inhibited the phosphorylation
phosphorylation of HER2, HER3, and their downstream targets (AKT and ERK) (SK-BR-3 cells): increased again
BIM and cleaved PARP (SK-BR-3 cells): increased

GI50 [2]: 5.6 ± 2.7 nM
Compound: CN(C)C/C=C/C(=O)Nc1cc2c(Nc3ccc(F)c(Cl)c3)ncnc2cc1O[C@H]1CCOC1 [afatinib]

GI50 [2]: 29.4 ± 1.5 nM
Compound: C=CC(=O)Nc1cc(Nc2nccc(-c3cn(C)c4ccccc34)n2)c(OC)cc1N(C)CCN(C)C [osimertinib]

GI50 [2]: 89.5 ± 39.5 nM
Compound: CS(=O)(=O)CCNCc1ccc(-c2ccc3ncnc(Nc4ccc(OCc5cccc(F)c5)c(Cl)c4)c3c2)o1 [lapatinib]
phosphorylation of HER2, HER3, and their downstream targets (SK-BR-3 cells): inhibited the phosphorylation
phosphorylation of HER2, HER3, and their downstream targets (AKT and ERK) (SK-BR-3 cells): increased again
BIM and cleaved PARP (SK-BR-3 cells): increased

— patent US20240238300A1, “TREATMENT METHODS FOR SUBJECTS WITH CANCER HAVING AN ABERRATION IN EGFR AND/OR HER2” (TAIHO PHARMACEUTICAL CO., LTD., priority 2021, published 2024)
